Measurements from EP3722296B1, “DIHYDRONAPHTHYRIDINES AND RELATED COMPOUNDS USEFUL AS KINASE INHIBITORS FOR THE TREATMENT OF PROLIFERATIVE DISEASES” (Deciphera Pharmaceuticals, LLC, priority 2012, dated 2013).

Columns and labels:
c-KIT T670I kinase = molecular target: T1, c-KIT T670I kinase (Homo sapiens, UniProt P10721, T670I); test: c-KIT T670I kinase assay; type: biochemical; details: enzymatic assay
T1 construct: The construct contains residues T544-V976 of cKit; GST (N); TEV cleavage site (internal); purchased deCODE Biostructures
T1 sequence (P10721 544-976 T670I): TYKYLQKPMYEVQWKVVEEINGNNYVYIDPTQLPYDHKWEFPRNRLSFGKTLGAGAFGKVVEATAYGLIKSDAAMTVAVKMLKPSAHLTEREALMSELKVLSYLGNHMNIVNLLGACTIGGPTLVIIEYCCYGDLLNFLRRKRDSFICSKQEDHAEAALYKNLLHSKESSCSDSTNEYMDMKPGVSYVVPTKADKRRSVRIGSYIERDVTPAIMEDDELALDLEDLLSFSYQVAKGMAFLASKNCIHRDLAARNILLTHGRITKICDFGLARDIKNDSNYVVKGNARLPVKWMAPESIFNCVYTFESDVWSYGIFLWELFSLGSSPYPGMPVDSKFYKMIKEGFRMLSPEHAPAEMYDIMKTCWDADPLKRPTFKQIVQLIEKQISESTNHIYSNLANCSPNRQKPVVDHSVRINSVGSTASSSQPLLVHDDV
Summary of the method: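 Coupled spectrophotometric assay following NADH oxidation as absorbance decrease at 340 nm, monitored continuously for 5 h at 30 °C after adding serially diluted compound. Enzyme is a cKit construct with N-terminal tag, GST fusion and TEV site, carrying the T670I mutation.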

c-KIT VVDV kinase = molecular target: T2, c-KIT VVDV kinase (Homo sapiens, UniProt P10721, D816V/DEL559-560); test: cKIT-VVDV kinase Assay; type: biochemical; details: enzymatic assay; V559+V560 deletions and D816V mutation
T2 construct: This construct contains residues T544-V976 of cKit; GST (N); TEV cleavage site (internal); purchased deCODE Biostructures
T2 sequence (P10721 with tags, fused parts or gaps DEL559-560/D816V): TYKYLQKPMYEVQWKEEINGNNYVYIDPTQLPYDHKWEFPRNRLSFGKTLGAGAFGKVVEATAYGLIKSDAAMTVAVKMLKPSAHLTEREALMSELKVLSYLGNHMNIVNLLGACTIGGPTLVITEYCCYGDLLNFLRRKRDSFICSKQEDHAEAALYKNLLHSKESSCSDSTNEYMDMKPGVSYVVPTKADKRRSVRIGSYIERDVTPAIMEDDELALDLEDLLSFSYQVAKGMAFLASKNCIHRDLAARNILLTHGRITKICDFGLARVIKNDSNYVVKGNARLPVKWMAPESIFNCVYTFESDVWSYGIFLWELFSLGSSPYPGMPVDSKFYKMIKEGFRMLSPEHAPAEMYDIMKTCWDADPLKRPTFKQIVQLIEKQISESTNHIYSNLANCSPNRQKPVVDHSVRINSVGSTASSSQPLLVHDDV
Procedure: In this assay, the oxidation of NADH (measured by decrease in absorbance at 340 nm) was continuously monitored spectrophotometrically. […] The inhibition reaction was started by mixing serial diluted test compound with the above reaction mixture. The absorption at 340 nm was monitored continuously for 5 hours at 30 °C on Synergy 2 plate reader (BioTech). […] The protein construct was prepared by deCODE Biostructures using procedures known in the art. […] This construct is identical to Seq ID no.

c-KIT D816V kinase = molecular target: T3, c-KIT D816V kinase (Homo sapiens, UniProt P10721, D816V); test: c-KIT D816V kinase Assay; type: biochemical; details: enzymatic assay, ATP 200 uM
T3 construct: residues T544-V976 with N-terminal GST fusion; purchased deCODE Biostructures
T3 sequence (P10721 544-976 D816V): as the sequence (P10721 544-976 T670I) above, with I127T, D273V counted along it
Summary of the method: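 Coupled assay in which NADH oxidation was tracked as decreasing absorbance at 340 nm, continuously for 5 hours at 30 °C after adding serially diluted compound. Enzyme: cKit residues T544-V976 with N-terminal tag, GST fusion and TEV cleavage site.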

c-KIT kinase = c-KIT kinase (Homo sapiens, UniProt P10721); test: c-KIT kinase Assay; type: biochemical; design: cKIT residues T544-V976; GST (N); TEV cleavage site (internal); purchased deCODE Biostructures; details: enzymatic assay, ATP 200 µM; read-out: KIT (wt) IC50
Sequence of c-KIT kinase (P10721 544-976): as the sequence (P10721 544-976 T670I) above, with I127T counted along it
Summary of the method: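 Activity of wild-type human c-KIT kinase was followed as NADH oxidation, read as falling absorbance at 340 nm on a Synergy 2 plate reader (BioTeK) for 2 hours at 30 °C. Rates from the 0 to 1 h window were compared with an uninhibited control to give percent inhibition. IC50 values were fitted in GraphPad Prism across a range of inhibitor concentrations.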

c-KIT V654A kinase = molecular target: T4, c-KIT V654A kinase (Homo sapiens, UniProt P10721, V654A); test: c-KIT V654A Kinase Assay; type: biochemical; details: enzymatic assay, ATP 200 µM
T4 construct: residues T544-V976 with N-terminal GST fusion; purchased deCODE Biostructures
T4 sequence (P10721 544-976 V654A): as the sequence (P10721 544-976 T670I) above, with V111A, I127T counted along it
Summary of the method: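 Construct: cKIT residues T544–V976 with N-terminal tag, GST fusion and TEV site. Reaction started by adding serially diluted compound to the enzyme mixture; NADH oxidation, coupled to kinase turnover, followed as the decrease in A340 for 6 h at 30 °C.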

c-KIT D816H kinase = molecular target: T5, c-KIT D816H kinase (Homo sapiens, UniProt P10721, D816H); test: c-KIT D816H Kinase Assay; type: biochemical; details: enzymatic assay, ATP 200 µM
T5 construct: The construct contains residues T544-V976 of cKit; GST (N); TEV cleavage site (internal); purchased deCODE Biostructures
T5 sequence (P10721 544-976 D816H): as the sequence (P10721 544-976 T670I) above, with I127T, D273H counted along it
Summary of the method: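 Coupled spectrophotometric assay following NADH oxidation as absorbance decrease at 340 nm, monitored continuously for 6 hours at 30 °C after adding serially diluted compound. Enzyme: mutant cKit construct with N-terminal tag, GST fusion and TEV cleavage site.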

Phospho-KIT (Tyr719) [1] = test: GIST430 KIT Western Blot; type: cell-based; details: GIST430 cells, 4 hours, serum-free medium; read-out: pKIT suppression by western blot analysi GIST430
Procedure: (§1) GIST48, GIST430, and GIST882 cells were obtained from J. Fletcher (Brigham and Women's Hospital, Boston, MA). GIST T1 cells were obtained from B. Rubin (Cleveland Clinic, Cleveland, OH) and Professor Takahiro Taguchi (Kochi Medical School, Nankoku, Kochi, Japan). […] GIST430 cells were grown in Ham's F10 medium supplemented with 15% characterized fetal bovine serum (Invitrogen, Carlsbad, CA), 30 mg/L bovine pituitary extract (BD Biosciences, San Jose, CA), 0.5% Mito+ serum extender (BD Biosciences, San Jose, CA), 1 unit/mL penicillin G, 1 µg/ml streptomycin, and 0.29 mg/mL L-glutamine at 37 °C, 5%CO2, 95% humidity. GIST T1 cells were grown in DMEM medium supplemented with 10% characterized fetal bovine serum (Invitrogen, Carlsbad, CA), 1 unit/mL penicillin G, 1 µg/ml streptomycin, and 0.29 mg/mL L-glutamine at 37 °C, 5% CO2, and 95% humidity.
(§2) One hundred fifty thousand cells were added per well in a 24-well tissue-culture treated plate. […] Medium was aspirated, cells were washed with PBS, and serum-free Ham's F10 medium was added. […] Cells were washed with PBS, then lysed. Cell lysates were separated by SDS-PAGE and transferred to PVDF. Phospho-KIT (Tyr719) was detected using an antibody from Cell Signaling Technology (Beverly, MA), ECL Plus detection reagent (GE Healthcare, Piscataway, NJ) and a Molecular Devices Storm 840 phosphorimager in fluorescence mode. Blots were stripped and probed for total KIT using an antibody from Santa Cruz Biotech (Santa Cruz, CA). IC50 values were calculated using Prism software (Graphpad, San Diego, CA).

Phospho-KIT (Tyr719) [2] = test: GIST48 KIT Western Blot; type: cell-based; details: GIST48 cells, 4 hours, serum-free medium; read-out: pKIT suppression by western blot analysi GIST48
Procedure: as §1
as §2, with “Two” for “One”, “RPMI1640” for “Ham's F10”

Phospho-KIT (Tyr719) [3] = molecular target: T6, Phospho-KIT (Tyr719) (Homo sapiens, UniProt P10721, K642E); test: GIST882 KIT Western Blot; type: cell-based; details: GIST882 cells, 4 hours, serum-free medium; read-out: pKIT suppression by western blot analysi GIST 882
T6 construct: endogenous in cells; host or cells: GIST882
T6 sequence (P10721 26-976 K642E): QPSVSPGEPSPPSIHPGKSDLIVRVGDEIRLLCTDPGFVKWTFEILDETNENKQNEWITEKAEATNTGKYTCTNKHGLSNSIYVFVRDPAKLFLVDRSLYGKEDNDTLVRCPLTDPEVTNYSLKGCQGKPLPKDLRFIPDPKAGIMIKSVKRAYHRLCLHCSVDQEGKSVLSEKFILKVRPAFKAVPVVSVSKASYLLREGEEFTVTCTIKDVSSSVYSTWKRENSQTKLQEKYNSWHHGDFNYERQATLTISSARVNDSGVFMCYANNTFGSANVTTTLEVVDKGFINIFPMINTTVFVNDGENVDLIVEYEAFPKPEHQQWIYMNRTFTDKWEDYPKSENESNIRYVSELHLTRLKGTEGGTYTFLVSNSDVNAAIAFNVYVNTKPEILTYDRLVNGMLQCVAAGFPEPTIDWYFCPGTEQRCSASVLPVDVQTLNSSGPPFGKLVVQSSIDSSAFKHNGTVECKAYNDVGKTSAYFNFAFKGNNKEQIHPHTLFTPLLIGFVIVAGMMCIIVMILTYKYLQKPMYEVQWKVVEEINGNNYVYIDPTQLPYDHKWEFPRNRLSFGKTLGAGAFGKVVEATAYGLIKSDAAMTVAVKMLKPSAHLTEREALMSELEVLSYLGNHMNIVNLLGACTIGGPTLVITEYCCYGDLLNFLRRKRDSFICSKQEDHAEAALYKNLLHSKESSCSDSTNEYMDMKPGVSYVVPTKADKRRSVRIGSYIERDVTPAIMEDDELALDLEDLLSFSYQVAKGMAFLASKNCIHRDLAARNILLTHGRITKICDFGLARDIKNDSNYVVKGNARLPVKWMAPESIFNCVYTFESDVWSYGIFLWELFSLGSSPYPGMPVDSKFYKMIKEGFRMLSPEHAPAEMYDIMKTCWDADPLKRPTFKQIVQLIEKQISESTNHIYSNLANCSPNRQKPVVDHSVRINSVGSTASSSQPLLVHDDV
Procedure: as §1
as §2, with “Two” for “One”, “RPMI1640” for “Ham's F10”

Structure (SMILES)	IC50 (c-KIT T670I kinase)	IC50 (c-KIT VVDV kinase)	IC50 (c-KIT D816V kinase)	IC50 (c-KIT kinase)	IC50 (c-KIT V654A kinase)	IC50 (c-KIT D816H kinase)	IC50 (Phospho-KIT (Tyr719) [1])	IC50 (Phospho-KIT (Tyr719) [2])	IC50 (Phospho-KIT (Tyr719) [3])
CNc1cc2c(cn1)cc(-c1cc(NC(=O)Nc3csc4ccccc34)c(F)cc1C)c(=O)n2C [Example 13, 1-(benzo[b]thiophen-3-yl)-3-(2-fluoro-4-methyl-5-(1-methyl-7-(methylamino)-2-oxo-1,2-dihydro-1,6-naphthyridin-3-yl)phenyl)urea]	0.01 to 0.1 µM	< 0.01 µM	0.01 to 0.1 µM						
CCn1c(=O)c(-c2c(Cl)ccc(NC(=O)Nc3ccccc3)c2F)cc2cnc(NC)cc21 [Example 26, 1-(4-chloro-3-(1-ethyl-7-(methylamino)-2-oxo-1,2-dihydro-1,6-naphthyridin-3-yl)-2-fluorophenyl)-3-phenylurea]		> 1 µM	> 1 µM	0.01 to 0.1 µM					
CNc1cc2c(cn1)cc(-c1ccc(F)c(NC(=O)Nc3ccccc3)c1)c(=O)n2C(C)C [Example 5, 1-(2-fluoro-5-(1-isopropyl-7-(methylamino)-2-oxo-1,2-dihydro-1,6-naphthyridin-3-yl)phenyl)-3-phenylurea]		0.1 to 1 µM	0.1 to 1 µM						
CCn1c(=O)c(-c2cc(NC(=O)Nc3ccccc3)ccc2Cl)cc2cnc(NC)cc21 [Example 33, 1-(4-chloro-3-(1-ethyl-7-(methylamino)-2-oxo-1,2-dihydro-1,6-naphthyridin-3-yl)phenyl)-3-phenylurea]	0.1 to 1 µM	0.1 to 1 µM	0.01 to 0.1 µM	< 0.01 µM	< 0.01 µM	0.01 to 0.1 µM	0.01 to 0.1 µM		
CCn1c(=O)c(-c2cc(NC(=O)Nc3cccc(F)c3)c(F)cc2C)cc2cnc(NC3CC3)cc21 [Example 45, 1-(5-(7-(cyclopropylamino)-1-ethyl-2-oxo-1,2-dihydro-1,6-naphthyridin-3-yl)-2-fluoro-4-methylphenyl)-3-(3-fluorophenyl)urea]	0.01 to 0.1 µM	> 1 µM	0.01 to 0.1 µM	< 0.01 µM	0.01 to 0.1 µM	0.01 to 0.1 µM			
CCn1c(=O)c(-c2cc(NC(=O)Nc3ccccc3)c(F)cc2Cl)cc2cnc(NC(=O)N3CC[C@@H](N(C)C)C3)cc21 [Example 84, (R)-N-(3-(2-chloro-4-fluoro-5-(3-phenylureido)phenyl)-1-ethyl-2-oxo-1,2-dihydro-1,6-naphthyridin-7-yl)-3-(dimethylamino)pyrrolidine-1-carboxamide]	0.01 to 0.1 µM		0.01 to 0.1 µM	< 0.01 µM	0.1 to 1 µM	0.01 to 0.1 µM	0.01 to 0.1 µM	0.01 to 0.1 µM	0.01 to 0.1 µM
CNc1cc2c(cn1)cc(-c1cc(NC(=O)Nc3cccc4ccccc34)c(F)cc1Cl)c(=O)n2C [Example 8, 1-(4-chloro-2-fluoro-5-(1-methyl-7-(methylamino)-2-oxo-1,2-dihydro-1,6-naphthyridin-3-yl)phenyl)-3-(naphthalen-1-yl)urea]	0.01 to 0.1 µM	0.1 to 1 µM	0.01 to 0.1 µM						
CNc1cc2c(cn1)cc(-c1cc(NC(=O)Nc3cccc(F)c3F)c(F)cc1Cl)c(=O)n2C [Example 10, 1-(4-chloro-2-fluoro-5-(1-methyl-7-(methylamino)-2-oxo-1,2-dihydro-1,6-naphthyridin-3-yl)phenyl)-3-(2,3-difluorophenyl)urea]	0.01 to 0.1 µM	0.01 to 0.1 µM	0.01 to 0.1 µM						
CCn1c(=O)c(-c2ccc(F)c(NC(=O)Nc3cccc4ccccc34)c2)cc2cnc(NC)cc21 [Example 2, 1-(5-(1-ethyl-7-(methylamino)-2-oxo-1,2-dihydro-1,6-naphthyridin-3-yl)-2-fluorophenyl)-3-(naphthalen-1-yl)urea]	< 0.01 µM	0.1 to 1 µM	0.1 to 1 µM						
CNc1cc2c(cn1)cc(-c1cc(NC(=O)Nc3ccccc3)c(F)cc1Cl)c(=O)n2C [Example 7, 1-(4-chloro-2-fluoro-5-(1-methyl-7-(methylamino)-2-oxo-1,2-dihydro-1,6-naphthyridin-3-yl)phenyl)-3-phenylurea]	0.01 to 0.1 µM	0.01 to 0.1 µM	0.01 to 0.1 µM						
CNc1cc2c(cn1)cc(-c1cc(NC(=O)Nc3cccc(C#N)c3)c(F)cc1Cl)c(=O)n2C [Example 9, 1-(4-chloro-2-fluoro-5-(1-methyl-7-(methylamino)-2-oxo-1,2-dihydro-1,6-naphthyridin-3-yl)phenyl)-3-(3-cyanophenyl)urea]	0.01 to 0.1 µM	0.01 to 0.1 µM	0.01 to 0.1 µM	< 0.01 µM					
CCn1c(=O)c(-c2cc(NC(=O)Nc3ccccc3)c(F)cc2F)cc2cnc(NCCOC)cc21 [Example 36, 1-(5-(1-ethyl-7-(2-methoxyethylamino)-2-oxo-1,2-dihydro-1,6-naphthyridin-3-yl)-2,4-difluorophenyl)-3-phenylurea]	0.1 to 1 µM	0.01 to 0.1 µM	0.01 to 0.1 µM	< 0.01 µM	0.01 to 0.1 µM	0.01 to 0.1 µM	0.1 to 1 µM	0.1 to 1 µM	
CCn1c(=O)c(-c2cc(NC(=O)Nc3csc4ccccc34)c(F)cc2F)cc2cnc(NC)cc21 [Example 19, 1-(benzo[b]thiophen-3-yl)-3-(5-(1-ethyl-7-(methylamino)-2-oxo-1,2-dihydro-1,6-naphthyridin-3-yl)-2,4-difluorophenyl)urea]		0.01 to 0.1 µM	< 0.01 µM	< 0.01 µM					
CCn1c(=O)c(-c2cc(NC(=O)Nc3cccc(C#N)c3)c(F)cc2F)cc2cnc(NC)cc21 [Example 18, 1-(3-cyanophenyl)-3-(5-(1-ethyl-7-(methylamino)-2-oxo-1,2-dihydro-1,6-naphthyridin-3-yl)-2,4-difluorophenyl)urea]	0.01 to 0.1 µM	0.01 to 0.1 µM	0.1 to 1 µM	< 0.01 µM					
CCn1c(=O)c(-c2ccc(F)c(NC(=O)Nc3cccc(C#N)c3)c2)cc2cnc(NC)cc21 [Example 12, 1-(3-cyanophenyl)-3-(5-(1-ethyl-7-(methylamino)-2-oxo-1,2-dihydro-1,6-naphthyridin-3-yl)-2-fluorophenyl)urea]		0.1 to 1 µM	> 1 µM						
